Source: US10227331B2 (priority 2015, dated 2019)
Where two headings read alike, the source gives them in different places.

How the values were obtained:
IMP-1 = IMP-1 (Serratia marcescens, UniProt P52699); test: biochemical; type: biochemical
How it was run: (§1)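 Inhibitor was mixed with the metallo-β-lactamase and CCF2-FA. After 2 hours at 25° C, fluorescence of the coumarin–fluorescein cephalosporin substrate was read. IC50 was calculated with a 4-parameter fit.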

NDM-1 = NDM-1 (Klebsiella pneumoniae, UniProt C7C422); test: biochemical; type: biochemical; conditions: CCF2-FA substrate, 2 hours at 25° C; read-out: NDM-1 IC50
Chain of NDM-1 (C7C422 whole entry, looked up, species assumed): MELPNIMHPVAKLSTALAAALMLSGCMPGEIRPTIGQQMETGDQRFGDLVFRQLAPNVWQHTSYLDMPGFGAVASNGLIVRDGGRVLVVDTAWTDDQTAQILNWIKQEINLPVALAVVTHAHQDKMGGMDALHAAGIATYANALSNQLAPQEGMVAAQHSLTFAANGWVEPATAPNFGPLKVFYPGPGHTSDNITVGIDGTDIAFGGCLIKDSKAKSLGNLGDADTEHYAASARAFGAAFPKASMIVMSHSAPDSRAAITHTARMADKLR
How it was run: as §1

VIM-1 = VIM-1 (Pseudomonas aeruginosa (strain ATCC 15692 / DSM 22644 / CIP 104116 / JCM 14847 / LMG 12228 / 1C / PRS 101 / PAO1), UniProt A0A0F7KYQ8); test: biochemical; conditions: CCF2-FA substrate, 2 hours at 25° C
How it was run: as §1

[1] = system: Escherichia coli expressing NDM-1 (CLB30005, CLB30016); type: cell-based; conditions: with imipenem 1 μg/ml; 95% inhibition of bacterial growth
How it was run: (§2)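 Colonies from overnight 35 °C blood-agar cultures were suspended in saline, diluted 1:100 into 1.1× CAMHB and exposed to test compound with or without imipenem at 1 μg/ml. After 22–24 h at 35 °C, absorbance was read to find the concentration restoring imipenem susceptibility.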

[2] = system: Klebsiella pneumoniae expressing VIM-1 (IHMA599644); type: cell-based; conditions: with imipenem 1 μg/ml; 95% inhibition of bacterial growth
How it was run: as §2

[3] = system: Serratia marcescens expressing IMP-1 (CL5741); type: cell-based; conditions: with imipenem 1 μg/ml; 95% inhibition of bacterial growth
How it was run: as §2

[4] = system: P. aeruginosa expressing IMP-1, efflux+ (MB9798); type: cell-based, Pseudomonas aeruginosa; conditions: for P. aeruginosa expressing IMP-1, efflux+ (MB9798) MITC95: imipenem at 2 μg/mL, in the presence of a class A, C, D serine β-lactamase inhibitor closely related to relebactam; for Efflux ratio: ratio MITC95 PA_9798/MITC95 PA_9799
Description: (§3) The strain background is Pseudomonas aeruginosa PAO1.

[5] = system: P. aeruginosa expressing IMP-1, efflux− (MB9799); test: Efflux: concentration of MBL inhibitor which restores susceptibility to imipenem; type: cell-based, Pseudomonas aeruginosa; conditions: imipenem at 2 μg/mL, in the presence of a class A, C, D serine β-lactamase inhibitor closely related to relebactam
Description: as §3

[6] = CCF2-FA substrate, 2 hours at 25° C, read-out: IMP-1 IC50

Chain of IMP-1 (P52699 whole entry, looked up, species assumed): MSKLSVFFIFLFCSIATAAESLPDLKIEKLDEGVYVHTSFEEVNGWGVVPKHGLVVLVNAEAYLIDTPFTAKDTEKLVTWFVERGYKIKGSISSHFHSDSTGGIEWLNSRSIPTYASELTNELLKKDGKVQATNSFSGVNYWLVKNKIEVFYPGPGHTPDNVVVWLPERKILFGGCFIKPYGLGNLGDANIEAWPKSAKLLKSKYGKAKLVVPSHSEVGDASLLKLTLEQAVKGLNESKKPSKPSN

SMILES | IC50 (IMP-1; [6]) [nM] | IC50 (NDM-1) [nM] | IC50 (VIM-1) [nM] | Escherichia coli expressing NDM-1 (CLB30016) MITC95 [1] [µM] | Klebsiella pneumoniae expressing VIM-1 (IHMA599644) MITC95 [2] [µM] | Serratia marcescens expressing IMP-1 (CL5741) MITC95 [3] [µM] | P. aeruginosa expressing IMP-1, efflux+ (MB9798) MITC95 [4] [µM] | Efflux ratio [4] | P. aeruginosa expressing IMP-1, efflux− (MB9799) MITC95 [5] [µM] | IC50 (IMP-1) [nM]
Nc1nc2cccc(-c3ccc(S(=O)(=O)[C@H]4CCNC4)c(S(N)(=O)=O)c3-c3nn[nH]n3)c2[nH]1 [Example 182, 3-(2-amino-3H-benzo[d]imidazol-4-yl)-6-((S)-pyrrolidin-3-ylsulfonyl)-2-(2H-tetrazol-5-yl)benzenesulfonamide] | 0.979 | 0.154 | 0.21 | 0.25 | 0.8906 | 0.6406 | 0.6406 | 1.00 | 0.6406 | –
Nc1nc2c(-c3ccc(S(=O)(=O)[C@@H]4CCNC4)c(S(N)(=O)=O)c3-c3nn[nH]n3)cccc2s1 [Example 183, 3-(2-aminobenzo[d]thiazol-4-yl)-6((R)-pyrrolidin-3-ylsulfonyl)-2-(2H-tetrazol-5-yl)benzenesulfonamide] | 0.157 | 0.122 | 0.294 | 0.7813 | 1.563 | 1.563 | 0.7813 | 1.00 | 0.7813 | –
Nc1nc2c(-c3ccc(S(=O)(=O)[C@H]4CCNC4)c(S(N)(=O)=O)c3-c3nn[nH]n3)cccc2s1 [Example 184, 3-(2-aminobenzo[d]thiazol-4-yl)-6-((S)-pyrrolidin-3-ylsulfonyl)-2-(2H-tetrazol-5-yl)benzenesulfonamide] | 0.243 | 0.0925 | 0.262 | 0.7813 | 1.563 | 0.7813 | 0.7813 | 1.00 | 0.7813 | –
NS(=O)(=O)c1c(S(=O)(=O)[C@@H]2CCNC2)ccc(-c2cccc3cn[nH]c23)c1-c1nn[nH]n1 [Example 185, 3-(1H-indazol-7-yl)-6-((R)-pyrrolidin-3-ylsulfonyl)-2-(2H-tetrazol-5-yl)benzenesulfonamide] | 0.466 | 0.657 | 0.55 | 0.7813 | 3.125 | 1.563 | 1.563 | 2.00 | 0.7813 | –
NS(=O)(=O)c1c(S(=O)(=O)[C@H]2CCNC2)ccc(-c2cccc3cn[nH]c23)c1-c1nn[nH]n1 [Example 186, 3-(1H-indazol-7-yl)-6-((S)-pyrrolidin-3-ylsulfonyl)-2-(2H-tetrazol-5-yl)benzenesulfonamide] | 0.541 | 0.246 | 0.228 | 1.563 | 1.563 | 1.563 | 1.563 | 2.00 | 0.7813 | –
Cc1ccc(-c2ccc(S(=O)(=O)[C@@H]3CCNC3)c(S(N)(=O)=O)c2-c2nn[nH]n2)c2nc(N)sc12 [Example 187, 3-(2-amino-7-methylbenzo[d]thiazol-4-yl)-6-((R)-pyrrolidin-3-ylsulfonyl)-2-(2H-tetrazol-5-yl)benzenesulfonamide] | 0.0757 | 0.0691 | 0.159 | 0.7813 | 1.563 | 0.7813 | 1.563 | 2.00 | 0.7813 | –
Cc1ccc(-c2ccc(S(=O)(=O)[C@H]3CCNC3)c(S(N)(=O)=O)c2-c2nn[nH]n2)c2nc(N)sc12 [Example 188, 3-(2-amino-7-methylbenzo[d]thiazol-4-yl)-6-((S)-pyrrolidin-3-ylsulfonyl)-2-(2H-tetrazol-5-yl)benzenesulfonamide] | 0.109 | 0.0435 | 0.113 | 1.563 | 1.563 | 0.7813 | 1.563 | 2.00 | 0.7813 | –
Nc1nc2c(-c3ccc(S(=O)(=O)[C@@H]4CCNC4)c(S(N)(=O)=O)c3-c3nn[nH]n3)cccc2o1 [Example 189, 3-(2-aminobenzo[d]oxazol-4-yl)-6-((R)-pyrrolidin-3-ylsulfonyl)-2-(2H-tetrazol-5-yl)benzenesulfonamide] | 0.332 | 0.219 | 0.419 | 1.563 | 1.563 | 1.563 | 0.7813 | 1.00 | 0.7813 | –
Nc1nc2c(-c3ccc(S(=O)(=O)[C@H]4CCNC4)c(S(N)(=O)=O)c3-c3nn[nH]n3)cccc2o1 [Example 190, 3-(2-aminobenzo[d]oxazol-4-yl)-6-((S)-pyrrolidin-3-ylsulfonyl)-2-(2H-tetrazol-5-yl)benzenesulfonamide] | – | 0.113 | 0.169 | 1.563 | 3.125 | 1.563 | 1.563 | 1.00 | 1.563 | 0.352
CS(=O)(=O)c1ccc(-c2cccc3cn[nH]c23)c(-c2nn[nH]n2)c1S(N)(=O)=O [Example 191, 3-(1H-indazol-7-yl)-6-(methylsulfonyl)-2-(2H-tetrazol-5-yl)benzenesulfonamide] | 0.21 | 0.436 | 0.298 | 3.125 | 6.25 | 3.125 | 25 | 15.99 | 1.563 | –
Cn1c(N)nc2c(-c3ccc(S(C)(=O)=O)c(S(N)(=O)=O)c3-c3nn[nH]n3)cccc21 [Example 192, 3-(2-amino-1-methyl-1H-benzo[d]imidazol-4-yl)-6-(methylsulfonyl)-2-(2H-tetrazol-5-yl)benzenesulfonamide] | 0.552 | 1 | 0.194 | 0.7813 | 3.125 | 1.563 | 3.125 | 4.00 | 0.7813 | –
